Test results published in US11040987B2 (TenNor Therapeutics Limited, priority 2019, dated 2021).
Converted amounts (≈) assume the structure as drawn.

Assays:
Format in all cases: cell-based
[1] = tested on: A.b TNP 41709; assay: MIC against A. baumannii clinical isolates, alone and in combination with antibiotics; settings: for MIC: Acinetobacter baumannii, TNP41709, Compounds alone, read-out: MIC A.b TNP 41709
[2] = tested on: P. aeruginosa ATCC 27853; assay: MIC determination, broth microdilution, ESKAPE panel; settings: Pseudomonas aeruginosa, ATCC27853; iron-depleted cation-adjusted Mueller-Hinton broth, 2,2-dipyridyl 160 μM; 37° C., 18-20 hours; read-out: MIC P. aeruginosa ATCC 27853
Description: (§1) Minimum inhibitory concentration (MIC) is determined by a broth microdilution method according to the recommendation of the Clinical and Laboratory Standards Institute (CLSI) with minor modification. […] Strains of an ESKAPE panel (E. faecium ATCC 700221, S. aureus ATCC 29213, K. pneumoniae ATCC 43816, A. baumannii ATCC 19606, P. aeruginosa ATCC 27853 and Escherichia coli ATCC 25922) were obtained originally from the American Type Culture Collection (ATCC) and used for MIC determinations of compounds. The bacteria inoculum in the test is […].

[3] = tested on: E. faecium ATCC 700221; assay: as above; settings: Enterococcus faecium, ATCC700221; iron-depleted cation-adjusted Mueller-Hinton broth, 2,2-dipyridyl 160 μM; 37° C., 18-20 hours; read-out: MIC E. faecium ATCC 700221
Description: as §1

[4] = tested on: S. aureus ATCC 29213; assay: as above; settings: Staphylococcus aureus, ATCC29213; iron-depleted cation-adjusted Mueller-Hinton broth, 2,2-dipyridyl 160 μM; 37° C., 18-20 hours; read-out: MIC S. aureus ATCC 29213
Description: as §1

[5] = tested on: A. baumannii ATCC 19606; assay: as above; settings: Acinetobacter baumannii, ATCC19606; iron-depleted cation-adjusted Mueller-Hinton broth, 2,2-dipyridyl 160 μM; 37° C., 18-20 hours; read-out: MIC A. baumannii ATCC 19606
Description: as §1

[6] = tested on: K. pneumoniae ATCC 43816; assay: as above; settings: Klebsiella pneumoniae, ATCC43816; iron-depleted cation-adjusted Mueller-Hinton broth, 2,2-dipyridyl 160 μM; 37° C., 18-20 hours; read-out: MIC K. pneumoniae ATCC 43816
Description: as §1

[7] = tested on: Escherichia coli ATCC 25922; assay: as above; settings: ATCC25922, iron-depleted cation-adjusted Mueller-Hinton broth, 2,2-dipyridyl 160 μM, 37° C., 18-20 hours, read-out: MIC E. coli ATCC 25922
Description: as §1

[8] = tested on: A.b TNP 41708; assay: MIC against A. baumannii clinical isolates, alone and in combination with antibiotics; settings: for MIC: Acinetobacter baumannii, TNP41708, read-out: MIC A.b TNP 41708
Description: as §1

[9] = tested on: A.b TNP 41704; assay: as above; settings: for MIC: Acinetobacter baumannii, TNP41704, Compounds alone, read-out: MIC A.b TNP 41704

Row | SMILES | MIC [1] [µg/mL] | MIC A.b TNP 41709 ([1]; Compounds + meropenem (1:1)) [µg/mL] | MIC A.b TNP 41709 ([1]; Compounds + sulbactam (1:1)) [µg/mL] | MIC [2] [µg/mL] | MIC [3] [µg/mL] | MIC [4] [µg/mL] | MIC [5] [µg/mL] | MIC [6] [µg/mL] | MIC [7] [µg/mL] | MIC [8] [µg/mL] | MIC A.b TNP 41708 ([8]; Compounds + meropenem (1:1)) [µg/mL] | MIC A.b TNP 41708 ([8]; Compounds + sulbactam (1:1)) [µg/mL] | MIC [9] [µg/mL] | MIC A.b TNP 41704 ([9]; Compounds + meropenem (1:1)) [µg/mL] | MIC A.b TNP 41704 ([9]; Compounds + sulbactam (1:1)) [µg/mL] | MIC A.b TNP 41709 ([1]; Compounds + Imipenem (1:1)) [µg/mL] | MIC A.b TNP 41708 ([8]; Compounds + Imipenem (1:1)) [µg/mL] | MIC A.b TNP 41704 ([9]; Compounds + Imipenem (1:1)) [µg/mL]
1 | C[C@]1(/C=N/NC(=O)Cc2ccc(O)c(O)c2)[C@H](C(=O)O)N2C(=O)C[C@H]2S1(=O)=O [Example 20, (2S,3R,5R)-3-((E)-(2-(2-(3,4-dihydroxyphenyl)acetyl)hydrazono)methyl)-3-methyl-7-oxo-4-thia-1-azabicyclo[3.2.0]heptane-2-carboxylic acid 4,4-dioxide] | > 128 | 8 | 16 | > 128 | > 128 | 32 (≈ 77.8 µM) | 64 (≈ 156 µM) | > 128 | > 128 | > 128 | 8 | 8 | > 128 | 8 | 4 | – | – | –
2 | C[C@]1(/C=N/NC(=O)c2cccc(O)c2O)[C@H](C(=O)O)N2C(=O)C[C@H]2S1(=O)=O [Example 28, (2S,3R,5R)-3-((E)-(2-(2,3-dihydroxybenzoyl)hydrazono)methyl)-3-methyl-7-oxo-4-thia-1-azabicyclo[3.2.0]heptane-2-carboxylic acid 4,4-dioxide] | > 128 | 4 | 8 | > 128 | > 128 | > 128 | > 128 | > 128 | > 128 | > 128 | 8 | 8 | > 128 | 8 | 4 | – | – | –
3 | C[C@]1(/C=N/NC(=O)c2ccc(O)cc2)[C@H](C(=O)O)N2C(=O)C[C@H]2S1(=O)=O [Example 29, (2S,3R,5R)-3-((E)-(2-(4-hydroxybenzoyl)hydrazono)methyl)-3-methyl-7-oxo-4-thia-1-azabicyclo[3.2.0]heptane-2-carboxylic acid 4,4-dioxide] | > 128 | 32 | 32 | > 128 | > 128 | > 128 | > 128 | > 128 | > 128 | > 128 | 32 | 32 | > 128 | 32 | 8 | – | – | –
4 | COc1ccc(C(=O)N/N=C/[C@@]2(C)[C@H](C(=O)O)N3C(=O)C[C@H]3S2(=O)=O)cc1 [Example 35, (2S,3R,5R)-3-((E)-(2-(4-methoxybenzoyl)hydrazono)methyl)-3-methyl-7-oxo-4-thia-1-azabicyclo[3.2.0]heptane-2-carboxylic acid 4,4-dioxide] | > 128 | 32 | 4 | > 128 | > 128 | 128 (≈ 324 µM) | > 128 | > 128 | > 128 | > 128 | 1 | 16 | > 128 | 32 | 4 | – | – | –
5 | C[C@]1(/C=N/NC(=O)C2CCN(C(=O)c3ccc(O)c(O)c3Cl)CC2)[C@H](C(=O)O)N2C(=O)C[C@H]2S1(=O)=O [Example 42, (2S,3R,5R)-3-((E)-(2-(1-(2-chloro-3,4-dihydroxybenzoyl)piperidine-4-carbonyl)hydrazono)methyl)-3-methyl-7-oxo-4-thia-1-azabicyclo[3.2.0]heptane-2-carboxylic acid 4,4-dioxide] | > 128 | 2 | 4 | > 128 | > 128 | 128 (≈ 236 µM) | 1 (≈ 1.84 µM) | > 128 | > 128 | > 128 | 2 | 8 | > 128 | 2 | 8 | – | – | –
6 | C[C@]1(/C=N/NC(=O)[C@H](CO)NC(=O)c2ccc(O)c(O)c2Cl)[C@H](C(=O)O)N2C(=O)C[C@H]2S1(=O)=O [Example 43, (2S,3R,5R)-3-((E)-(2-(2-(2-chloro-3,4-dihydroxybenzamido)-3-hydroxypropanoyl)hydrazono)methyl)-3-methyl-7-oxo-4-thia-1-azabicyclo[3.2.0]heptane-2-carboxylic acid 4,4-dioxide] | > 128 | 4 | 4 | > 128 | – | > 128 | 8 (≈ 15.4 µM) | > 128 | > 128 | > 128 | 4 | 8 | > 128 | 4 | 4 | 4 | 8 | 8
7 | C[C@]1(/C=N/NC(=O)CCNC(=O)c2ccc(O)c(O)c2Cl)[C@H](C(=O)O)N2C(=O)C[C@H]2S1(=O)=O [Example 60, (2S,3R,5R)-3-((E)-(2-(3-(2-chloro-3,4-dihydroxybenzamido)propanoyl)hydrazono)methyl)-3-methyl-7-oxo-4-thia-1-azabicyclo[3.2.0]heptane-2-carboxylic acid 4,4-dioxide] | > 128 | 2 | 8 | > 128 | > 128 | > 128 | 2 (≈ 3.98 µM) | 16 (≈ 31.8 µM) | > 128 | > 128 | 2 | 8 | 64 | 2 | 1 | 1 | 2 | 2
8 | C[C@H](NC(=O)c1ccc(O)c(O)c1Cl)C(=O)N/N=C/[C@@]1(C)[C@H](C(=O)O)N2C(=O)C[C@H]2S1(=O)=O [Example 62, (2S,3R,5R)-3-((E)-(2-((S)-2-(2-chloro-3,4-dihydroxybenzamido)propanoyl)hydrazono)methyl)-3-methyl-7-oxo-4-thia-1-azabicyclo[3.2.0]heptane-2-carboxylic acid 4,4-dioxide] | > 128 | 2 | 2 | > 128 | > 128 | 128 (≈ 255 µM) | 4 (≈ 7.95 µM) | > 128 | > 128 | > 128 | 4 | 8 | > 128 | 4 | 8 | – | – | –
